Measurements reported in PubChem BioAssay AID1259407 (Chemical Carcinogenesis Research Information System (CCRIS), 2018).
The source made the active and inactive calls. No rule for the calls is given here.

System: CCRIS mutagenicity, Ames/micronucleus/aberration tests
Assay: CCRIS mutagenicity studies
[1] = Test System: AMES SALMONELLA TYPHIMURIUM, Strain/Indicator: TA98, Metabolic Activation: NONE, Method: PREINCUBATION
[2] = Test System: AMES SALMONELLA TYPHIMURIUM, Strain/Indicator: TA100, Metabolic Activation: NONE, Method: PREINCUBATION
[3] = Test System: AMES SALMONELLA TYPHIMURIUM, Strain/Indicator: TA100, Metabolic Activation: RAT, LIVER, S-9, AROCLOR 1254, Method: PREINCUBATION

For `c1ccc(Nc2ccc3ccccc3c2)cc1`, the mutagenic call (End Point: IN VITRO CHROMOSOMAL ABERRATIONS, Test System: CHINESE HAMSTER LUNG CELLS (CHL), Metabolic Activation: NONE) was “inactive; negative”, the mutagenic call (End Point: IN VITRO CHROMOSOMAL ABERRATIONS, Test System: CHINESE HAMSTER LUNG CELLS (CHL), Metabolic Activation: RAT, LIVER, S-9, KC-400) was “active; positive (structural changes)” and the mutagenic call (End Point: IN VITRO CHROMOSOMAL ABERRATIONS, Test System: CHINESE HAMSTER OVARY CELLS (CHO), Metabolic Activation: NONE) was “inactive; negative”. The mutagenic call (End Point: IN VITRO CHROMOSOMAL ABERRATIONS, Test System: CHINESE HAMSTER OVARY CELLS (CHO), Metabolic Activation: RAT, LIVER, S-9, AROCLOR 1254) was “inactive; negative”, the mutagenic call (End Point: IN VITRO CHROMOSOMAL ABERRATIONS, Test System: CHO CELLS, Metabolic Activation: NONE) was “inactive; negative” and the mutagenic call (End Point: IN VITRO CHROMOSOMAL ABERRATIONS, Test System: CHO CELLS, Metabolic Activation: RAT, LIVER, S-9, AROCLOR 1254) was “inactive; negative”. The mutagenic call (Test System: AMES SALMONELLA TYPHIMURIUM, Strain/Indicator: TA97, Metabolic Activation: HAMSTER, LIVER, S-9, AROCLOR 1254 (10%), Method: PREINCUBATION) was “inactive; negative”, the mutagenic call (Test System: AMES SALMONELLA TYPHIMURIUM, Strain/Indicator: TA97, Metabolic Activation: HAMSTER, LIVER, S-9, AROCLOR 1254 (30%), Method: PREINCUBATION) was “inactive; negative” and the mutagenic call (Test System: AMES SALMONELLA TYPHIMURIUM, Strain/Indicator: TA97, Metabolic Activation: HAMSTER, LIVER, S-9, AROCLOR 1254, Method: PREINCUBATION) was “inactive; negative”. The mutagenic call (Test System: AMES SALMONELLA TYPHIMURIUM, Strain/Indicator: TA97, Metabolic Activation: NONE, Method: PREINCUBATION) was “inactive; negative”, the mutagenic call (Test System: AMES SALMONELLA TYPHIMURIUM, Strain/Indicator: TA97, Metabolic Activation: RAT, LIVER, S-9, AROCLOR 1254 (10%), Method: PREINCUBATION) was “inactive; negative” and the mutagenic call (Test System: AMES SALMONELLA TYPHIMURIUM, Strain/Indicator: TA97, Metabolic Activation: RAT, LIVER, S-9, AROCLOR 1254 (30%), Method: PREINCUBATION) was “inactive; negative”. The mutagenic call (Test System: AMES SALMONELLA TYPHIMURIUM, Strain/Indicator: TA97, Metabolic Activation: RAT, LIVER, S-9, AROCLOR 1254, Method: PREINCUBATION) was “inactive; negative”, the mutagenic call (Test System: AMES SALMONELLA TYPHIMURIUM, Strain/Indicator: TA98, Metabolic Activation: HAMSTER, LIVER, S-9, AROCLOR 1254 (10%), Method: PREINCUBATION) was “inactive; negative” and the mutagenic call (Test System: AMES SALMONELLA TYPHIMURIUM, Strain/Indicator: TA98, Metabolic Activation: HAMSTER, LIVER, S-9, AROCLOR 1254 (30%), Method: PREINCUBATION) was “inactive; negative”. For the same compound, the mutagenic call (Test System: AMES SALMONELLA TYPHIMURIUM, Strain/Indicator: TA98, Metabolic Activation: HAMSTER, LIVER, S-9, AROCLOR 1254, Method: PREINCUBATION) was “inactive; negative”, the mutagenic call [1] was “inactive; negative” and the mutagenic call (Test System: AMES SALMONELLA TYPHIMURIUM, Strain/Indicator: TA98, Metabolic Activation: RAT, LIVER, S-9, AROCLOR 1254 (10%), Method: PREINCUBATION) was “inactive; negative”. The mutagenic call (Test System: AMES SALMONELLA TYPHIMURIUM, Strain/Indicator: TA98, Metabolic Activation: RAT, LIVER, S-9, AROCLOR 1254 (30%), Method: PREINCUBATION) was “inactive; negative”, the mutagenic call (Test System: AMES SALMONELLA TYPHIMURIUM, Strain/Indicator: TA98, Metabolic Activation: RAT, LIVER, S-9, AROCLOR 1254, Method: PREINCUBATION) was “inactive; negative” and the mutagenic call (Test System: AMES SALMONELLA TYPHIMURIUM, Strain/Indicator: TA100, Metabolic Activation: HAMSTER, LIVER, S-9, AROCLOR 1254 (10%), Method: PREINCUBATION) was “inactive; negative”. The mutagenic call (Test System: AMES SALMONELLA TYPHIMURIUM, Strain/Indicator: TA100, Metabolic Activation: HAMSTER, LIVER, S-9, AROCLOR 1254 (30%), Method: PREINCUBATION) was “inactive; negative”, the mutagenic call (Test System: AMES SALMONELLA TYPHIMURIUM, Strain/Indicator: TA100, Metabolic Activation: HAMSTER, LIVER, S-9, AROCLOR 1254, Method: PREINCUBATION) was “inactive; negative” and the mutagenic call [2] was “inactive; negative”. For the same compound, the mutagenic call (Test System: AMES SALMONELLA TYPHIMURIUM, Strain/Indicator: TA100, Metabolic Activation: RAT, LIVER, S-9, AROCLOR 1254 (10%), Method: PREINCUBATION) was “inactive; negative”, the mutagenic call (Test System: AMES SALMONELLA TYPHIMURIUM, Strain/Indicator: TA100, Metabolic Activation: RAT, LIVER, S-9, AROCLOR 1254 (30%), Method: PREINCUBATION) was “inactive; negative” and the mutagenic call [3] was “inactive; negative”. For the same compound, the mutagenic call (Test System: AMES SALMONELLA TYPHIMURIUM, Strain/Indicator: TA1535, Metabolic Activation: HAMSTER, LIVER, S-9, AROCLOR 1254 (10%), Method: PREINCUBATION) was “inactive; negative”, the mutagenic call (Test System: AMES SALMONELLA TYPHIMURIUM, Strain/Indicator: TA1535, Metabolic Activation: HAMSTER, LIVER, S-9, AROCLOR 1254 (30%), Method: PREINCUBATION) was “inactive; negative” and the mutagenic call (Test System: AMES SALMONELLA TYPHIMURIUM, Strain/Indicator: TA1535, Metabolic Activation: HAMSTER, LIVER, S-9, AROCLOR 1254, Method: PREINCUBATION) was “inactive; negative”. The mutagenic call (Test System: AMES SALMONELLA TYPHIMURIUM, Strain/Indicator: TA1535, Metabolic Activation: NONE, Method: PREINCUBATION) was “inactive; negative”, the mutagenic call (Test System: AMES SALMONELLA TYPHIMURIUM, Strain/Indicator: TA1535, Metabolic Activation: RAT, LIVER, S-9, AROCLOR 1254 (10%), Method: PREINCUBATION) was “inactive; negative” and the mutagenic call (Test System: AMES SALMONELLA TYPHIMURIUM, Strain/Indicator: TA1535, Metabolic Activation: RAT, LIVER, S-9, AROCLOR 1254 (30%), Method: PREINCUBATION) was “inactive; negative”. The mutagenic call (Test System: AMES SALMONELLA TYPHIMURIUM, Strain/Indicator: TA1535, Metabolic Activation: RAT, LIVER, S-9, AROCLOR 1254, Method: PREINCUBATION) was “inactive; negative”, the mutagenic call (Test System: MOUSE LYMPHOMA, Strain/Indicator: L5178Y (TK+/TK-), Metabolic Activation: NONE, Method: SUSPENSION/PLATE) was “inactive; negative” and the mutagenic call (Test System: MOUSE LYMPHOMA, Strain/Indicator: L5178Y (TK+/TK-), Metabolic Activation: RAT, LIVER, S-9, AROCLOR 1254, Method: SUSPENSION/PLATE) was “active; positive”.

In the case of `CC(C)(C)OC(=O)CN=[N+]=[N-]`, the mutagenic call (Test System: AMES SALMONELLA TYPHIMURIUM, Strain/Indicator: TA100, Metabolic Activation: RAT, LIVER, S-9, PCB, Method: PREINCUBATION) is reported as “active; positive”.

In the case of `Nc1cccc2ncccc12`, the mutagenic call [1] is reported as “inactive; negative”, the mutagenic call (Test System: AMES SALMONELLA TYPHIMURIUM, Strain/Indicator: TA98, Metabolic Activation: RAT, LIVER, S-9, KANECHLOR 500 OR PHENOBARBITAL AND BETA-NAPHTHOFLAVONE, Method: PREINCUBATION) is reported as “active; positive” and the mutagenic call [2] is reported as “inactive; negative”. The mutagenic call (Test System: AMES SALMONELLA TYPHIMURIUM, Strain/Indicator: TA100, Metabolic Activation: RAT, LIVER, S-9, KANECHLOR 500 OR PHENOBARBITAL AND BETA-NAPHTHOFLAVONE, Method: PREINCUBATION) was “active; positive” and the mutagenic call (Test System: AMES SALMONELLA TYPHIMURIUM, Strain/Indicator: TA100, Metabolic Activation: RAT, LIVER, S-9, PHENOBARBITAL AND 5,6-BENZOFLAVONE, Method: PREINCUBATION) was “active; positive”.

In the case of `Cn1nnc2c(C(N)=O)ncn2c1=O`, the mutagenic call (End Point: IN VITRO CHROMOSOMAL ABERRATIONS, Test System: HUMAN HCT116/3-6 CELLS, Metabolic Activation: NONE) is reported as “active; positive”, the mutagenic call (End Point: IN VITRO CHROMOSOMAL ABERRATIONS, Test System: HUMAN HCT116 CELLS, Metabolic Activation: NONE) is reported as “active; positive” and the mutagenic call (End Point: IN VITRO CHROMOSOMAL ABERRATIONS, Test System: HUMAN MT1 CELLS, Metabolic Activation: NONE) is reported as “active; positive”. The mutagenic call (End Point: IN VITRO CHROMOSOMAL ABERRATIONS, Test System: HUMAN TK6 CELLS, Metabolic Activation: NONE) was “active; positive”.

In the case of `C/C=C(\Cl)C=O`, the mutagenic call [2] is reported as “active; positive” and the mutagenic call (Test System: AMES SALMONELLA TYPHIMURIUM, Strain/Indicator: TA100, Metabolic Activation: NONE, Method: PREINCUBATION, LIQUID INCUBATION) is reported as “active; positive”.

`Cc1cc2ccccc2c2cc3c(cc12)[C@H](O)[C@@H](O)C=C3` was tested, and the mutagenic call [3] was “active; positive”.
